For one assay, the target named is PDK1 (His6-PDK1(Δ1-50)) (Homo sapiens (Human), UniProt O15530). The assay is described as follows: Test for the inhibition of PDK1 (enzymatic, flashplate, 33P-ATP). In kind it is biochemical. The protocol:
4. Test for the Inhibition of PDK1
The experimental batches are carried out in a flashplate system with 384 wells/microtitration plate.
The test substances are employed in corresponding concentrations (if desired in a dilution series). The control is carried out without test substance. The reaction is stopped using standard methods and washed. The activity of the kinase is measured via the incorporated radioactivity in top count. In order to determine the non-specific kinase reaction (blank value), the experimental batches are carried out in the presence of 100 nM staurosporine.
The radioactivity (decompositions per minute) of the blank value (no use of test substance in the presence of staurosporine) is subtracted from all other radioactivity values. The controls (kinase activity without test substance) are set equal to 100 percent and all other radioactivity values (after subtracting the blank value) are expressed set in relation thereto (for example in % of the control).

Assay [1] has as its target PDK1 kinase in PC3 cells (PKB phosphorylation at Thr 308) (Homo sapiens (Human), UniProt O15530). The assay is described as follows: Cellular testing of PDK1 kinase inhibitors in PC3 cells (Luminex, phospho-T308-PKB). In kind it is cell-based. The conditions noted are these: PKB phosphorylation at Thr 308 in PC3 cells; read-out: cellular IC50. The protocol:
Method for the Cellular Testing of PDK1 Kinase Inhibitors in PC3 Cells
The cellular assay for the determination of the PDK1 kinase activity is carried out as a Luminex assay in the 96-well format. PC3 cells are sown at 20,000 cells per well in 100 μl of medium (45% of […]/45% of Ham's F12/10% of FCS) and incubated on the following day for 30 min with a serial dilution of the test substance (7 concentrations) under serum-free conditions. The cells are subsequently lysed using 90 μl of lysis buffer (20 mM tris/HCl pH 8.0, 150 mM NaCl, 1% of NP40, 10% of glycerol, 1% of phosphatase inhibitor I, 1% of phosphatase inhibitor II, 0.1% of protease inhibitor cocktail III, 0.01% of benzonase) per well, and the lysates are separated off from insoluble cell constituents by means of centrifugation through a 96-well filter plate (0.65 μm). The lysates are incubated overnight at 4° C. with shaking with Luminex beads to which an anti-total PKB antibody is coupled. The detection is carried out on the following day by addition of a phospho-T308-PKB antibody and a species-specific […] secondary antibody. The detection of phospho-T308-PKB is carried out by measurement in a Luminex100 instrument by determination of 100 events per cavity in a measurement time of 60 sec. […] The values of the batches treated with test substance are calculated therefrom as percentage of control, and IC50 values are determined by means of RS1.

The mark [2] stands for this setting: enzymatic PDK1 inhibition assay, read-out: enzymatic IC50.

One may read the IC50 as the concentration that inhibits the measured activity by half.

Like-named read-outs stand apart in the source and are kept apart here.

PDK1 kinase in PC3 cells (PKB phosphorylation at Thr 308), sequence (O15530 whole entry): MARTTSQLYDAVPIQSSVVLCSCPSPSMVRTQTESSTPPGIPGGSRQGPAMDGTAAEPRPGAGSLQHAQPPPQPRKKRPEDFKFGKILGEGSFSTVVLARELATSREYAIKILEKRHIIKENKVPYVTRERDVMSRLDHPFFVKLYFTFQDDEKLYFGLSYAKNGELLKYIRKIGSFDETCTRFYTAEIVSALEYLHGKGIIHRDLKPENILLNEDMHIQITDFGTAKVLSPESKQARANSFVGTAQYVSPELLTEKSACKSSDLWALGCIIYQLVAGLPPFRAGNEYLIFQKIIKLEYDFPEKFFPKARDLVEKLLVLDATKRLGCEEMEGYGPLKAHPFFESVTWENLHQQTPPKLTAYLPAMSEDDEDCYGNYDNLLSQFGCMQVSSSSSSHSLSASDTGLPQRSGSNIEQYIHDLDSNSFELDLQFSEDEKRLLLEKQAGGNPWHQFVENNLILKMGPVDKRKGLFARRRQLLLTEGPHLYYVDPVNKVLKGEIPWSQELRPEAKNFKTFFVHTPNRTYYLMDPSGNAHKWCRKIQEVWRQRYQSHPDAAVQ
PDK1 (His6-PDK1(Δ1-50)), sequence (O15530 51-556): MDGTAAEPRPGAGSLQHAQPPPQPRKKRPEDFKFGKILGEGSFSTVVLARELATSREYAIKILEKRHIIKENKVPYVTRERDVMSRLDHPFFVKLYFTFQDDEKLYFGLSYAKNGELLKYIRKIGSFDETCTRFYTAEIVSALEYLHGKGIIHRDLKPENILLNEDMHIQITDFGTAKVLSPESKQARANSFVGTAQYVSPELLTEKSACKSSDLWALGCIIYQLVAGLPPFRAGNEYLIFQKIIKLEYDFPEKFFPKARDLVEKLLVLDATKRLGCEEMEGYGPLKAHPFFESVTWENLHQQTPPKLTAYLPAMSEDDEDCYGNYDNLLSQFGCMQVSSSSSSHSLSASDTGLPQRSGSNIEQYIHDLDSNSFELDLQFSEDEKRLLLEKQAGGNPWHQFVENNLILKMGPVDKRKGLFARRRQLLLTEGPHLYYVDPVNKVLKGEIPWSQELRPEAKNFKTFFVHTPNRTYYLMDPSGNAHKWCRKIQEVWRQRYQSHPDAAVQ

Regarding `CN(c1cccc(F)c1)c1cc(-c2c[nH]c3ncc(-c4cnn(C)c4)cc23)nc(N)n1` [A1, N4-(3-Fluorophenyl)-N4-methyl-6-[5-(1-methyl-1H-pyrazol-4-yl)-1H-pyrrolo[2,3-b]pyridin-3-yl]pyrimidine-2,4-diamine], the results for the IC50 (on PDK1 (His6-PDK1(Δ1-50)) (setting [2]); in assay [1]) were 34 nM and 280 nM, respectively.
On the same counts, the results for `Cn1cc(-c2cnc3[nH]cc(-c4cc(C(C)(C)c5ccccc5)nc(N)n4)c3c2)cn1` [A2, 4-(1-Methyl-1-phenylethyl)-6-[5-(1-methyl-1H-pyrazol-4-yl)-1H-pyrrolo[2,3-b]pyridin-3-yl]pyrimidin-2-ylamine] are 65 nM and 140 nM.
Take `Cn1cc(-c2cnc3[nH]cc(-c4cc(C5(c6ccccc6)CC5)nc(N)n4)c3c2)cn1` [A3, 4-[5-(1-Methyl-1H-pyrazol-4-yl)-1H-pyrrolo[2,3-b]pyridin-3-yl]-6-(1-phenylcyclopropyl)pyrimidin-2-ylamine]: the IC50 at PDK1 (His6-PDK1(Δ1-50)) (setting [2]) came out at 59.5 nM; in assay [1], 110 nM.
As for `COc1ccc(N(C[C@H](O)CO)c2cc(-c3c[nH]c4ncc(-c5cnn(C)c5)cc34)nc(N)n2)cc1` [A5, (S)-3-[{2-Amino-6-[5-(1-methyl-1H-pyrazol-4-yl)-1H-pyrrolo-[2,3-b]pyridin-3-yl]pyrimidin-4-yl}-(4-methoxyphenyl)amino]-propane-1,2-diol], the IC50 on PDK1 (His6-PDK1(Δ1-50)) (setting [2]) came to 24 nM; in assay [1], 6800 nM.
With `Cn1cc(-c2cnc3[nH]cc(-c4cc(C5(c6ccc(Cl)cc6)CCCC5)nc(N)n4)c3c2)cn1` [A7, 4-[1-(4-Chlorophenyl)cyclopentyl]-6-[5-(1-methyl-1H-pyrazol-4-yl)-1H-pyrrolo[2,3-b]pyridin-3-yl]pyrimidin-2-ylamine], the 50% inhibitory concentration (IC50) came to 870 nM at PDK1 (His6-PDK1(Δ1-50)) (setting [2]) and 1400 nM in assay [1].
`CN(c1cccc(Cl)c1)c1cc(-c2c[nH]c3ncc(-c4cnn(C)c4)cc23)nc(N)n1` [A8, N4-(3-Chlorophenyl)-N4-methyl-6-[5-(1-methyl-1H-pyrazol-4-yl)-1H-pyrrolo[2,3-b]pyridin-3-yl]pyrimidine-2,4-diamine]: the IC50 came to 51 nM at PDK1 (His6-PDK1(Δ1-50)) (setting [2]) and 200 nM in assay [1].
Regarding `CN(c1cc(-c2c[nH]c3ncc(-c4cnn(C)c4)cc23)nc(N)n1)c1ccccc1F` [A9, N4-(2-Fluorophenyl)-N4-methyl-6-[5-(1-methyl-1H-pyrazol-4-yl)-1H-pyrrolo[2,3-b]pyridin-3-yl]pyrimidine-2,4-diamine], the IC50 came to 9.7 nM on PDK1 (His6-PDK1(Δ1-50)) (setting [2]) and 27 nM in assay [1].
The matching figures for `CN(c1cc(-c2c[nH]c3ncc(-c4cnn(C)c4)cc23)nc(N)n1)c1ccccc1Cl` [A10, N4-(2-Chlorophenyl)-N4-methyl-6-[5-(1-methyl-1H-pyrazol-4-yl)-1H-pyrrolo[2,3-b]pyridin-3-yl]pyrimidine-2,4-diamine]: 7.6 nM and 26 nM.
In the case of `CN(c1ccccc1)c1cc(-c2c[nH]c3ncc(-c4cnn(C)c4)cc23)nc(N)n1` [A11, N4-Methyl-6-[5-(1-methyl-1H-pyrazol-4-yl)-1H-pyrrolo[2,3-b]-pyridin-3-yl]-N4-phenylpyrimidine-2,4-diamine], the results for the IC50 (on PDK1 (His6-PDK1(Δ1-50)) (setting [2]); in assay [1]) were 16.5 nM and 800 nM, respectively.
As to `CCN(c1ccccc1)c1cc(-c2c[nH]c3ncc(-c4cnn(C)c4)cc23)nc(N)n1` [A12, N4-Ethyl-6-[5-(1-methyl-1H-pyrazol-4-yl)-1H-pyrrolo[2,3-b]-pyridin-3-yl]-N4-phenylpyrimidine-2,4-diamine], the IC50 on PDK1 (His6-PDK1(Δ1-50)) (setting [2]) stood at 12 nM; in assay [1], 690 nM.
The matching figures for `CCN(c1ccc(Cl)cc1)c1cc(-c2c[nH]c3ncc(-c4cnn(C)c4)cc23)nc(N)n1` [A13, N4-(4-Chlorophenyl)-N4-ethyl-6-[5-(1-methyl-1H-pyrazol-4-yl)-1H-pyrrolo[2,3-b]pyridin-3-yl]pyrimidine-2,4-diamine]: 46 nM and 120 nM.
On the same counts, the results for `CCN(Cc1ccccc1)c1cc(-c2c[nH]c3ncc(-c4cnn(C)c4)cc23)nc(N)n1` [A14, N4-Benzyl-N4-ethyl-6-[5-(1-methyl-1H-pyrazol-4-yl)-1H-pyrrolo[2,3-b]pyridin-3-yl]pyrimidine-2,4-diamine] are 51 nM and 530 nM.
On to `CC(C)n1cc(-c2cnc3[nH]cc(-c4cc(N(CCO)c5ccccc5Cl)nc(N)n4)c3c2)cn1` [A15, 2-[{2-Amino-6-[5-(1-isopropyl-1H-pyrazol-4-yl)-1H-pyrrolo[2,3-b]pyridin-3-yl]pyrimidin-4-yl)-(2-chlorophenyl)amino]-ethanol], for which, in assay [1], the IC50 stood at 2100 nM.
Regarding `Cn1cc(-c2cnc3[nH]cc(-c4cc(N(CCO)c5ccccc5Cl)nc(N)n4)c3c2)cn1` [A16, 2-[{2-Amino-6-[5-(1-methyl-1H-pyrazol-4-yl)-1H-pyrrolo[2,3-b]-pyridin-3-yl]pyrimidin-4-yl}-(2-chlorophenyl)amino]ethanol], the IC50 at PDK1 (His6-PDK1(Δ1-50)) (setting [2]) was determined as 4.7 nM; in assay [1] it was 2.6 nM.
With `Cn1cc(-c2cnc3[nH]cc(-c4cc(N5CCc6cc(F)ccc65)nc(N)n4)c3c2)cn1` [A17, 4-(5-Fluoro-2,3-dihydroindol-1-yl)-6-[5-(1-methyl-1H-pyrazol-4-yl)-1H-pyrrolo[2,3-b]pyridin-3-yl]pyrimidin-2-ylamine], the results for the half-maximal inhibitory concentration (IC50) (at PDK1 (His6-PDK1(Δ1-50)) (setting [2]); in assay [1]) were 200 nM and above 10000 nM, respectively.
On the same counts, the results for `CC(C)n1cc(-c2cnc3[nH]cc(-c4cc(N5CCc6cc(F)ccc65)nc(N)n4)c3c2)cn1` [A18, 4-(5-Fluoro-2,3-dihydroindol-1-yl)-6-[5-(1-isopropyl-1H-pyrazol-4-yl)-1H-pyrrolo[2,3-b]pyridin-3-yl]pyrimidin-2-ylamine] are 5900 nM and above 10000 nM.
As to `CC(C)n1cc(-c2cnc3[nH]cc(-c4cc(N(C)c5ccccc5Cl)nc(N)n4)c3c2)cn1` [A19, N4-(2-Chlorophenyl)-6-[5-(1-isopropyl-1H-pyrazol-4-yl)-1H-pyrrolo[2,3-b]pyridin-3-yl]-N4-methylpyrimidine-2,4-diamine], the half-maximal inhibitory concentration (IC50) is 30 nM on PDK1 (His6-PDK1(Δ1-50)) (setting [2]) and 400 nM in assay [1].
The matching figures for `CCN(c1cc(-c2c[nH]c3ncc(-c4cnn(C)c4)cc23)nc(N)n1)c1nncs1` [A20, N4-Ethyl-6-[5-(1-methyl-1H-pyrazol-4-yl)-1H-pyrrolo[2,3-b]pyridin-3-yl]-N4-1,3,4-thiadiazol-2-ylpyrimidine-2,4-diamine]: 155 nM and above 10000 nM.
The matching figures for `COCC(O)CN(c1ccccc1)c1cc(-c2c[nH]c3ncc(-c4cnn(C)c4)cc23)nc(N)n1` (stereo not drawn) [A21, 1-({2-Amino-6-[5-(1-methyl-1H-pyrazol-4-yl)-1H-pyrrolo[2,3-b]-pyridin-3-yl]pyrimidin-4-yl}phenylamino)-3-methoxypropan-2-ol]: 11 nM and 520 nM.
For the molecule `Cn1cc(-c2cnc3[nH]cc(-c4cc(N(CC(O)CO)c5cccc(C#N)c5)nc(N)n4)c3c2)cn1` (stereo not drawn) [A22, 3-[{2-Amino-6-[5-(1-methyl-1H-pyrazol-4-yl)-1H-pyrrolo[2,3-b]-pyridin-3-yl]pyrimidin-4-yl}-(2,3-dihydroxypropyl)amino]-benzonitrile], the IC50 on PDK1 (His6-PDK1(Δ1-50)) (setting [2]) is 90 nM; in assay [1], above 10000 nM.
As to `Cn1cc(-c2cnc3[nH]cc(-c4cc(N(CCC(=O)O)c5ccccc5Cl)nc(N)n4)c3c2)cn1` [A23, 3-[{2-Amino-6-[5-(1-methyl-1H-pyrazol-4-yl)-1H-pyrrolo[2,3-b]-pyridin-3-yl]pyrimidin-4-yl)-(2-chlorophenyl)amino]propionic acid], the IC50 on PDK1 (His6-PDK1(Δ1-50)) (setting [2]) is 4.8 nM; in assay [1] it was above 10000 nM.
The matching figures for `COC(=O)CN(c1ccc(Cl)cc1)c1cc(-c2c[nH]c3ncc(-c4cnn(C)c4)cc23)nc(N)n1` [A24, Methyl [{2-amino-6-[5-(1-methyl-1H-pyrazol-4-yl)-1H-pyrrolo-[2,3-b]pyridin-3-yl]pyrimidin-4-yl)-(4-chlorophenyl)amino]acetate]: 69 nM and 470 nM.
`Cn1cc(-c2cnc3[nH]cc(-c4cc(N(CCC#N)c5ccccc5Cl)nc(N)n4)c3c2)cn1` [A30, 3-[{2-amino-6-[5-(1-methyl-1H-pyrazol-4-yl)-1H-pyrrolo[2,3-b]-pyridin-3-yl]pyrimidin-4-yl}-(2-chlorophenyl)amino]propionitrile] returned an IC50 at PDK1 (His6-PDK1(Δ1-50)) of 9.1 nM.
Regarding `CN(c1cccc(F)c1)c1cc(-c2c[nH]c3ncc(-c4cnn(C)c4)cc23)ncn1` [A30a], the IC50 in assay [1] amounted to 660 nM.

The record behind these values is patent US8664236B2, “1H-pyrrolo[2,3 b]-pyridine derivatives” (Merck Patent GmbH, priority 2010, dated 2014).
